Our source for the IC50 values is patent US20240336574A1 (LATIGO BIOTHERAPEUTICS, INC., priority 2021, published 2024).

Where two headings read alike, the source gives them in different places.

For this assay, the target named is T1, recombinant human NaV1.8 stably transfected HEK cells (Homo sapiens, UniProt Q9Y5Y9).
T1 construct: expressed in transfected cells; host or cells: HEK cells, stably transfected
Put plainly: Compound profiling on NaV1.8, human NaV1.8 cell line, SyncroPatch384PE automated patch clamp assay (Example 102, first set of compounds, Table 16). Type of assay: cell-based. The settings on record: human NaV1.8 HEK cells, Table 16 (first set of compounds). In outline:
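IC50s come from two read-outs: resting-state block (P1, 10 mV step from −120 mV) and inactivated-state block (P2, after 10 s at −40 mV), scaled between DMSO and 250 μM tetracaine. Compounds (20–0.001 μM final, 1:3 steps) were applied for 5 min, 15 s sweeps. Cells kept at 30 °C the day before.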

[1] abbreviates: inactivated state block (P2 measurement), read-out: P2IC50.
[2] abbreviates: resting state block (P1 measurement), read-out: P1IC50.

T1 sequence (Q9Y5Y9 whole entry): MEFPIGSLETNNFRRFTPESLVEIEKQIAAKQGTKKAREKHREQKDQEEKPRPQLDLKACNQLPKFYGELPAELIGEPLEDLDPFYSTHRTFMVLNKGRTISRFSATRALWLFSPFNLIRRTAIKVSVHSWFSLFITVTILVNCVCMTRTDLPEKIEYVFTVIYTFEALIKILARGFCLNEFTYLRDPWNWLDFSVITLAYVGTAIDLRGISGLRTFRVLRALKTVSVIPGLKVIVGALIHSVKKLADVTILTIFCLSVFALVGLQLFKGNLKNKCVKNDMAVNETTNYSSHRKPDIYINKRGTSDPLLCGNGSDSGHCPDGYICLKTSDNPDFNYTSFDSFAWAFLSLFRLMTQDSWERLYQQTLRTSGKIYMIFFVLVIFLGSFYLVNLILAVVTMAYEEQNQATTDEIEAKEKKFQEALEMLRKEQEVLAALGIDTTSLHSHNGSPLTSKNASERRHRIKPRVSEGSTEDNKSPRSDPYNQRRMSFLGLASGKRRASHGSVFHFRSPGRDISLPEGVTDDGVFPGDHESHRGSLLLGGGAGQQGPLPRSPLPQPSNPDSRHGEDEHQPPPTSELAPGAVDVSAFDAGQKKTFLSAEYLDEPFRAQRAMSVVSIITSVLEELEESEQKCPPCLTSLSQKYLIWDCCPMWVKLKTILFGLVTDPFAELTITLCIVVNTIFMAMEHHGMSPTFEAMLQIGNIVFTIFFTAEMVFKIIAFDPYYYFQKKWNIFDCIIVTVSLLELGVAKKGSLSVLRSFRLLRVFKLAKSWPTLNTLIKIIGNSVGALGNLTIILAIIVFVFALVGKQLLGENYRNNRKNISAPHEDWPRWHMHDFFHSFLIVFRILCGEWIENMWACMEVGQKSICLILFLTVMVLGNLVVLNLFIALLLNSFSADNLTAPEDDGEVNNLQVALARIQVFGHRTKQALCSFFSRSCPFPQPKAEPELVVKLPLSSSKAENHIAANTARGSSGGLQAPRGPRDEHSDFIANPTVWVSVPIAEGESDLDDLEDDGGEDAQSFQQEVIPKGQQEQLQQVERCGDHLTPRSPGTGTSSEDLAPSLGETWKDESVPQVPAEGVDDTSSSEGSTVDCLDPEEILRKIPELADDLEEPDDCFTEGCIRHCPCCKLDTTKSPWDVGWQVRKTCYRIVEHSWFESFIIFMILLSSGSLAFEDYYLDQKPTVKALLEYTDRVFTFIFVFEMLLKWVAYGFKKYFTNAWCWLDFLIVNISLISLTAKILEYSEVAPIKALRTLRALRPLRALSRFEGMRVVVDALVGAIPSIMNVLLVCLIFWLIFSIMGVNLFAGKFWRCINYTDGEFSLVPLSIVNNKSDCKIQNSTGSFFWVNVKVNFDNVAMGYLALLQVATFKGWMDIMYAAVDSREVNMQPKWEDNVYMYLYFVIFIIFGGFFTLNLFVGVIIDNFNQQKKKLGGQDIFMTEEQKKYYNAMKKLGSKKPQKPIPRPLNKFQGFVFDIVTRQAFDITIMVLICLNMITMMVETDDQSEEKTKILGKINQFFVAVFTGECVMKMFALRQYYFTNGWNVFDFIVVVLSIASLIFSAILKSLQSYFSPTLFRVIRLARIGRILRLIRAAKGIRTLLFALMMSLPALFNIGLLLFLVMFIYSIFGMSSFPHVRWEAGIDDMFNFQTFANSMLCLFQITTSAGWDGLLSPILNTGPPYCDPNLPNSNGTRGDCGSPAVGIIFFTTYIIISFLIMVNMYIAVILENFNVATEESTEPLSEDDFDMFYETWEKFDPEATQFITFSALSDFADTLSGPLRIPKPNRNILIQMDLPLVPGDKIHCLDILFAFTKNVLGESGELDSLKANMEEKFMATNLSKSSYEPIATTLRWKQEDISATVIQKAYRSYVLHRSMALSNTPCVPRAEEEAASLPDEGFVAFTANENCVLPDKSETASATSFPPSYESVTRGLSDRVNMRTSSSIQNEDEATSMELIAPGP

Regarding `COc1ccc(-c2nnc(Oc3ccc(C#N)cc3OC)c(C(=O)Nc3cccc([S@@](C)(=N)=O)c3)c2C)cc1` [Compound 1536, 3-(4-cyano-2-methoxyphenoxy)-N-{3-[(S)-imino(methyl)oxo-λ^6-sulfanyl]phenyl}-6-(4-methoxyphenyl)-5-methylpyridazine-4-carboxamide], the IC50 is, setting by setting: under setting [1], 40 to 200 nM; under setting [2], 40 to 200 nM.

For `CCOC(=O)c1cc(NC(=O)c2c(Oc3ccc(F)cc3C)nnc(C(F)(F)F)c2C)cc(S(C)(=O)=O)c1` [Compound 1429], the IC50 was in the range of 200 to 500 nM under setting [1] and 200 to 500 nM under setting [2].

Turning to `COc1cc(C#N)ccc1Oc1nnc(C(F)(F)F)c(C)c1C(=O)Nc1cccc(C(=O)NC2CCCC2C(N)=O)c1` (stereo not drawn) [Compound 1444, N-[3-[(2-carbamoylcyclopentyl)carbamoyl]phenyl]-3-(4-cyano-2-methoxy-phenoxy)-5-methyl-6-(trifluoromethyl)pyridazine-4-carboxamide], the IC50 under setting [1] lay within 200 to 500 nM and the IC50 under setting [2] lay in the range of 200 to 500 nM.

Consider `COc1cc(C)c(Oc2ncc(C(F)(F)F)cc2C(=O)Nc2cccc(S(C)(=N)=O)c2)cc1C#N` (stereo not drawn) [Compound 1621], for which the IC50 lay within 200 to 500 nM under setting [1] and 200 to 500 nM under setting [2].

For the compound `CC(C#N)Oc1cc(F)c(Oc2ncc(C(F)(F)F)cc2C(=O)Nc2cccc(C(N)=O)c2)cc1F` (stereo not drawn) [Compound 1687], the IC50 lay within 200 to 500 nM under setting [1] and 200 to 500 nM under setting [2].

For the compound `CS(=O)(=O)c1cccc(NC(=O)c2cc(C(F)(F)F)cnc2OC2CCOC2)c1` (stereo not drawn) [Compound 1662], the IC50 reads like this: under setting [1], 200 to 500 nM; under setting [2], 200 to 500 nM.

As to `COc1c(Oc2ncc(Br)cc2C(=O)Nc2ccc(C(N)=O)cc2)ccc(F)c1F` [Compound 1569, 5-bromo-N-(4-carbamoylphenyl)-2-(3,4-difluoro-2-methoxy-phenoxy)pyridine-3-carboxamide], the IC50 runs as follows: under setting [1], no more than 20 nM; under setting [2], no more than 20 nM.

With `COc1ncc(C(N)=O)cc1Oc1ncc(C(F)(F)F)cc1C(=O)Nc1cccc(S(C)(=N)=O)c1` (stereo not drawn) [Compound 1622], the IC50 reads like this: under setting [1], 200 to 500 nM; under setting [2], 200 to 500 nM.

As for `CS(=N)(=O)c1cccc(NC(=O)c2cc(C(F)(F)F)cnc2Oc2ccc(-c3ccccc3)cc2)c1` (stereo not drawn) [Compound 1585], the IC50 under setting [1] was in the range of 200 to 500 nM and the IC50 under setting [2] is 200 to 500 nM.

On to `COc1cc(C#N)ccc1Oc1nnc(-c2ccnnc2)c(C)c1C(=O)Nc1cccc(S(C)(=N)=O)c1` (stereo not drawn) [Compound 1456, 3-(4-cyano-2-methoxy-phenoxy)-5-methyl-N-[3-(methylsulfonimidoyl)phenyl]-6-pyridazin-4-yl-pyridazine-4-carboxamide], for which the IC50 is, setting by setting: under setting [1], 200 to 500 nM; under setting [2], 200 to 500 nM.

Regarding `CC(C)Oc1ccc(Oc2ncc(C(F)(F)F)cc2C(=O)Nc2ccc(-c3ncc[nH]3)cc2)c(F)c1F` [Compound 1649], the IC50 fell in the range of 200 to 500 nM under setting [1] and 200 to 500 nM under setting [2].

Consider `COc1ccc(C#N)cc1Oc1ncc(C(F)(F)F)cc1C(=O)Nc1cccc(S(C)(=N)=O)c1` (stereo not drawn) [Compound 1620], for which the IC50 under setting [1] is 200 to 500 nM and the IC50 under setting [2] is 200 to 500 nM.

In the case of `CS(=O)(=O)c1cccc(NC(=O)c2cc(C(F)(F)F)cnc2OCCC(F)(F)F)c1` [Compound 1604], the IC50 is, setting by setting: under setting [1], 200 to 500 nM; under setting [2], 40 to 200 nM.

In the case of `NC(=O)c1cccc(NC(=O)c2cc(C(F)(F)F)cnc2Oc2ccc(OC(F)F)cc2)c1` [Compound 1635], the IC50 reads like this: under setting [1], 40 to 200 nM; under setting [2], 40 to 200 nM.

As to `CSc1cccc(Oc2ncc(C(F)(F)F)cc2C(=O)Nc2cccc(S(C)(=O)=O)c2)c1` [Compound 1656], the IC50 by setting is: under setting [1], 40 to 200 nM; under setting [2], 40 to 200 nM.

Consider `Cc1nc(C(F)(F)F)ccc1Oc1nnc(C(F)(F)F)c(C)c1C(=O)Nc1cccc(S(C)(=O)=O)c1` [Compound 1468, N-(3-methanesulfonylphenyl)-5-methyl-3-{[2-methyl-6-(trifluoromethyl)pyridin-3-yl]oxy}-6-(trifluoromethyl)pyridazine-4-carboxamide], for which the IC50 was no more than 20 nM under setting [1] and no more than 20 nM under setting [2].

With `Cc1cc(F)ccc1Oc1nnc(N2CC(F)C2)c(C)c1C(=O)Nc1cccc(S(C)(=N)=O)c1` (stereo not drawn) [Compound 1431, 6-(3-Fluoroazetidin-1-yl)-3-(4-fluoro-2-methyl-phenoxy)-5-methyl-N-[3-(methylsulfonimidoyl)phenyl]pyridazine-4-carboxamide], the IC50 fell in the range of 200 to 500 nM under setting [1] and 200 to 500 nM under setting [2].

For the compound `COc1cc(Cl)ccc1Oc1nnc(C(F)(F)F)c(C)c1C(=O)Nc1ccc(C(N)=O)cc1` [Compound 1403], the IC50 is, setting by setting: under setting [1], 20 to 40 nM; under setting [2], 20 to 40 nM.

As to `Cc1c(C(F)(F)F)nnc(Oc2ccc(OC(F)F)c(F)c2F)c1C(=O)Nc1cccc(S(C)(=N)=O)c1` (single isomer, unassigned) [Compound 1511, 3-[4-(difluoromethoxy)-2,3-difluorophenoxy]-N-{3-[imino(methyl)oxo-λ^6-sulfanyl]phenyl}-5-methyl-6-(trifluoromethyl)pyridazine-4-carboxamide], the IC50 reads like this: under setting [1], no more than 20 nM; under setting [2], no more than 20 nM.

Take `CS(=N)(=O)c1cccc(NC(=O)c2cc(C(F)(F)F)cnc2Oc2ccc(OC3CC3)cc2)c1` (stereo not drawn) [Compound 1588]: the IC50 is 40 to 200 nM under setting [1] and 40 to 200 nM under setting [2].

Turning to `COc1c(Oc2ncc(Br)cc2C(=O)Nc2cccc(C(N)=O)c2)ccc(F)c1F` [Compound 1680], the IC50 runs as follows: under setting [1], 20 to 40 nM; under setting [2], 20 to 40 nM.

In the case of `COc1ncc(Oc2ncc(C(F)(F)F)cc2C(=O)Nc2cccc(S(C)(=N)=O)c2)cc1F` (stereo not drawn) [Compound 1699], the IC50 under setting [1] was in the range of 200 to 500 nM and the IC50 under setting [2] was in the range of 200 to 500 nM.

Turning to `COc1c(Oc2nnc(C(F)(F)F)c(C)c2C(=O)Nc2cccc(S(C)(=O)=O)c2)ccc(Cl)c1F` [Compound 1552, 3-(4-chloro-3-fluoro-2-methoxy-phenoxy)-5-methyl-N-(3-methylsulfonylphenyl)-6-(trifluoromethyl)pyridazine-4-carboxamide], the IC50 is no more than 20 nM under setting [1] and no more than 20 nM under setting [2].

In the case of `COc1cc(C#N)ccc1Oc1nnc(C(F)(F)F)c(C)c1C(=O)Nc1cccc(C(=O)NS(C)(=O)=O)c1` [Compound 1542, 3-(4-cyano-2-methoxy-phenoxy)-5-methyl-N-[3-(methylsulfonylcarbamoyl)phenyl]-6-(trifluoromethyl)pyridazine-4-carboxamide], the IC50 runs as follows: under setting [1], 200 to 500 nM; under setting [2], 200 to 500 nM.

Consider `Cc1nc(F)ccc1Oc1ncc(C(F)(F)F)c(C)c1C(=O)Nc1cccc([S@@](C)(=N)=O)c1` [Compound 1560, (S)-2-((6-fluoro-2-methylpyridin-3-yl)oxy)-4-methyl-N-(3-(S-methylsulfonimidoyl)phenyl)-5-(trifluoromethyl)nicotinamide], for which the IC50 is no more than 20 nM under setting [1] and no more than 20 nM under setting [2].

As for `COc1cc(C#N)ccc1Oc1ncc(C2=CCOCC2)cc1C(=O)Nc1cccc(S(C)(=N)=O)c1` (stereo not drawn) [Compound 1726, 2-(4-cyano-2-methoxy-phenoxy)-5-(3,6-dihydro-2H-pyran-4-yl)-N-[3-(methylsulfonimidoyl)phenyl]pyridine-3-carboxamide], the IC50 reads like this: under setting [1], 200 to 500 nM; under setting [2], 200 to 500 nM.

As to `CS(=O)(=O)c1cccc(NC(=O)c2cc(C(F)(F)F)cnc2OCC2CC2)c1` [Compound 1602], the IC50 was in the range of 200 to 500 nM under setting [1] and 200 to 500 nM under setting [2].

As to `COc1ccc(Oc2nnc(C(F)(F)F)c(C)c2C(=O)Nc2cccc(S(C)(=N)=O)c2)c(C)n1` (single isomer, unassigned) [Compound 1508, N-{3-[imino(methyl)oxo-λ^6-sulfanyl]phenyl}-3-[(6-methoxy-2-methylpyridin-3-yl)oxy]-5-methyl-6-(trifluoromethyl)pyridazine-4-carboxamide], the IC50 lay within 40 to 200 nM under setting [1] and 40 to 200 nM under setting [2].

`CS(=N)(=O)c1cccc(NC(=O)c2cc(C(F)(F)F)cnc2Oc2ccc(Br)cc2C2CC2)c1` (stereo not drawn) [Compound 1648]: the IC50 is no more than 20 nM under setting [1] and no more than 20 nM under setting [2].

With `COc1cc(C#N)ccc1Oc1nnc(-c2ccc(C(F)F)cc2)c(C)c1C(=O)Nc1cccc([S@](C)(=N)=O)c1` [Compound 1534, 3-(4-cyano-2-methoxyphenoxy)-6-[4-(difluoromethyl)phenyl]-N-{3-[(R)-imino(methyl)oxo-λ^6-sulfanyl]phenyl}-5-methylpyridazine-4-carboxamide], the IC50 reads like this: under setting [1], 20 to 40 nM; under setting [2], 20 to 40 nM.

Take `Cc1cc(F)ccc1Oc1nnc(C(F)(F)F)c(NC2CNC2)c1C(=O)Nc1cccc([S@@](C)(=N)=O)c1` [Compound 1523, (S)-5-(azetidin-3-ylamino)-3-(4-fluoro-2-methylphenoxy)-N-(3-(S-methylsulfonimidoyl)phenyl)-6-(trifluoromethyl)pyridazine-4-carboxamide]: the IC50 fell in the range of 200 to 500 nM under setting [1] and 200 to 500 nM under setting [2].

For the compound `Cc1cc(C#N)ccc1Oc1nnc(C(F)(F)F)c(C)c1C(=O)Nc1cccc(S(C)(=O)=O)c1` [Compound 1465, 3-(4-cyano-2-methylphenoxy)-N-(3-methanesulfonylphenyl)-5-methyl-6-(trifluoromethyl)pyridazine-4-carboxamide], the IC50 was no more than 20 nM under setting [1] and no more than 20 nM under setting [2].

For the compound `COc1cc(C#N)ccc1Oc1nnc(-c2ncco2)c(C)c1C(=O)Nc1cccc(S(C)(=N)=O)c1` (stereo not drawn) [Compound 1462, 3-(4-cyano-2-methoxy-phenoxy)-5-methyl-N-[3-(methylsulfonimidoyl)phenyl]-6-oxazol-2-yl-pyridazine-4-carboxamide; formic acid], the IC50 under setting [1] fell in the range of 200 to 500 nM and the IC50 under setting [2] was in the range of 200 to 500 nM.
